Assays:
K-562 = conditions: K-562, Leukemia; besylate salt
MOLT-4 [1] = conditions: MOLT-4, Leukemia; besylate salt
HOP-62 [2] = conditions: HOP-62, Non-Small Cell Lung Cancer; besylate salt
NCI-H23 = conditions: NCI-H23, Non-Small Cell Lung Cancer; besylate salt
COLO 205 [3] = conditions: COLO 205, Colon Cancer; besylate salt
HCT-15 = conditions: HCT-15, Colon Cancer; besylate salt
M14 = conditions: M14, Melanoma; besylate salt
SK-MEL-5 = conditions: SK-MEL-5, Melanoma; besylate salt
UACC-257 = conditions: UACC-257, Melanoma; besylate salt
UACC-62 [4] = conditions: UACC-62, Melanoma; besylate salt
OVCAR-8 = conditions: OVCAR-8, Ovarian Cancer; besylate salt
SK-OV-3 = conditions: SK-OV-3, Ovarian Cancer; besylate salt
786-0 = conditions: 786-0, Renal Cancer; besylate salt
TK-10 [5] = conditions: TK-10, Renal Cancer; besylate salt
MOLT-4 [6] = assay: cells; conditions: Homo sapiens
UO-31 = conditions: UO-31, Renal Cancer; besylate salt
MCF7 = conditions: MCF7, Breast Cancer; besylate salt
NCI/ADR-RES [7] = conditions: Breast Cancer, besylate salt
MDA-MB-231/ATCC = conditions: Breast Cancer, besylate salt
RPM1-8226 = assay: cells; conditions: Homo sapiens
EKVX = assay: cells; conditions: Homo sapiens
HOP-62 [8] = assay: cells; conditions: Homo sapiens
HOP-92 = assay: cells; conditions: Homo sapiens
COLO 205 [9] = assay: cells; conditions: Homo sapiens
KM12 = assay: cells; conditions: Homo sapiens
SF-268 = assay: cells; conditions: Homo sapiens
SF-295 = assay: cells; conditions: Homo sapiens, SF-295, read-out: LC50
SNB-19 = assay: cells; conditions: Homo sapiens
LOX I MVI = assay: cells; conditions: Homo sapiens, LOX IMVI
MALME-3M = assay: cells; conditions: Homo sapiens
UACC-62 [10] = assay: cells; conditions: Homo sapiens, UACC-62, read-out: LC50
A498 = assay: cells; conditions: Homo sapiens
CAKI-1 = assay: cells; conditions: Homo sapiens
SN12C = assay: cells; conditions: Homo sapiens
TK-10 [11] = assay: cells; conditions: Homo sapiens, TK-10, read-out: LC50
NCI/ADR-RES [12] = assay: cells; conditions: Homo sapiens
MDA-MB-435 = assay: cells; conditions: Homo sapiens
BT-549 = assay: cells; conditions: Homo sapiens
T-47D = assay: cells; conditions: Homo sapiens, T47D, read-out: LC50

COc1cc(Nc2ncc(F)c(Nc3ccc4c(n3)NC(=O)C(C)(C)O4)n2)cc(OC)c1OC [Compound 1] was tested, and the TGI (K-562) was greater than 1.00E−4, the TGI (MOLT-4 [1]) was greater than 1.00E−4 and the TGI (HOP-62 [2]) was greater than 1.00E−4. It also gave a TGI (NCI-H23) greater than 1.00E−4, a TGI (COLO 205 [3]) greater than 1.00E−4 and a TGI (HCT-15) greater than 1.00E−4. It also gave a TGI (M14) greater than 1.00E−4, a TGI (SK-MEL-5) greater than 1.00E−4 and a TGI (UACC-257) greater than 1.00E−4. For the same compound, the TGI (UACC-62 [4]) was greater than 1.00E−4, the TGI (OVCAR-8) was greater than 1.00E−4 and the TGI (SK-OV-3) was greater than 1.00E−4. It also gave a TGI (786-0) greater than 1.00E−4, a TGI (TK-10 [5]) greater than 1.00E−4 and an IC50 (MOLT-4 [6]; MOLT-4, read-out: G150) of 4.82 µM. The CC50 (MOLT-4 [6]; MOLT-4, read-out: LC50) was greater than 100 µM, the TGI (UO-31) was greater than 1.00E−4 and the TGI (MCF7) was greater than 1.00E−4. It also gave a TGI (NCI/ADR-RES [7]) greater than 1.00E−4, a TGI (MDA-MB-231/ATCC) greater than 1.00E−4 and an IC50 (RPM1-8226; read-out: G150) greater than 100 µM. The CC50 (RPM1-8226; read-out: LC50) was greater than 100 µM, the IC50 (EKVX; read-out: G150) was 1.66 µM and the CC50 (EKVX; read-out: LC50) was greater than 100 µM. The IC50 (HOP-62 [8]; HOP-62, read-out: G150) was 0.537 µM, the CC50 (HOP-62 [8]; HOP-62, read-out: LC50) was greater than 100 µM and the IC50 (HOP-92; HOP-92, read-out: G150) was 0.41 µM. For the same compound, the CC50 (HOP-92; HOP-92, read-out: LC50) was greater than 100 µM, the IC50 (COLO 205 [9]; COLO 205, read-out: G150) was 7.26 µM and the CC50 (COLO 205 [9]; COLO 205, read-out: LC50) was greater than 100 µM. It also gave an IC50 (KM12; KM12, read-out: G150) of 0.355 µM, a CC50 (KM12; KM12, read-out: LC50) greater than 100 µM and an IC50 (SF-268; SF-268, read-out: G150) of 1.7 µM. It also gave a CC50 (SF-268; SF-268, read-out: LC50) greater than 100 µM, a CC50 (SF-295) greater than 100 µM and an IC50 (SNB-19; SNB-19, read-out: G150) greater than 100 µM. For the same compound, the CC50 (SNB-19; SNB-19, read-out: LC50) was greater than 100 µM, the IC50 (LOX I MVI; read-out: G150) was 1.13 µM and the CC50 (LOX I MVI; read-out: LC50) was greater than 100 µM. The IC50 (MALME-3M; read-out: G150) was greater than 100 µM, the CC50 (MALME-3M; read-out: LC50) was greater than 100 µM and the CC50 (UACC-62 [10]) was greater than 100 µM. For the same compound, the IC50 (A498; A498, read-out: G150) was 0.36 µM, the CC50 (A498; A498, read-out: LC50) was greater than 100 µM and the IC50 (CAKI-1; CAKI-1, read-out: G150) was 0.0515 µM. It also gave a CC50 (CAKI-1; CAKI-1, read-out: LC50) greater than 100 µM, an IC50 (SN12C; read-out: G150) of 0.698 µM and a CC50 (SN12C; read-out: LC50) greater than 100 µM. For the same compound, the CC50 (TK-10 [11]) was greater than 100 µM, the IC50 (NCI/ADR-RES [12]; read-out: G150) was greater than 100 µM and the CC50 (NCI/ADR-RES [12]; read-out: LC50) was greater than 100 µM. It also gave an IC50 (MDA-MB-435; MDA-MB-435, read-out: G150) of 3.62 µM, a CC50 (MDA-MB-435; MDA-MB-435, read-out: LC50) greater than 100 µM and an IC50 (BT-549; BT-549, read-out: G150) of 2.43 µM. It also gave a CC50 (BT-549; BT-549, read-out: LC50) greater than 100 µM and a CC50 (T-47D) greater than 100 µM.
